Laboratory results reported in patent US9708312B2, “Dihydropyrimidinoisoquinolinones and pharmaceutical compositions thereof for the treatment of inflammatory disorders (GPR84 antagonists)” (GALAPAGOS NV, priority 2012, dated 2017).

target: T1, GPR84 (Homo sapiens, UniProt Q9NQS5); assay: GPR84 [35S]GTPγS binding assay, HEPES buffer; type: biochemical; conditions: 3,3′ di indolylmethane at EC80, membranes from stable cell line over expressing GPR84
T1 construct: expressed in transfected cells
Outline: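 Membranes from a stable GPR84-overexpressing cell line (20 μg/well), pre-incubated with 0.1 μM GDP for 15 min at 4° C, mixed with 0.1 nM [35S]GTPγS and WGA SpA beads in 20 mM HEPES pH 7.4, 5 mM MgCl2, 250 mM NaCl, 0.05% BSA, 75 ug/mL saponin. Incubated 90 min at room temperature; scintillation proximity read after centrifugation.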

T1 sequence (Q9NQS5 whole entry): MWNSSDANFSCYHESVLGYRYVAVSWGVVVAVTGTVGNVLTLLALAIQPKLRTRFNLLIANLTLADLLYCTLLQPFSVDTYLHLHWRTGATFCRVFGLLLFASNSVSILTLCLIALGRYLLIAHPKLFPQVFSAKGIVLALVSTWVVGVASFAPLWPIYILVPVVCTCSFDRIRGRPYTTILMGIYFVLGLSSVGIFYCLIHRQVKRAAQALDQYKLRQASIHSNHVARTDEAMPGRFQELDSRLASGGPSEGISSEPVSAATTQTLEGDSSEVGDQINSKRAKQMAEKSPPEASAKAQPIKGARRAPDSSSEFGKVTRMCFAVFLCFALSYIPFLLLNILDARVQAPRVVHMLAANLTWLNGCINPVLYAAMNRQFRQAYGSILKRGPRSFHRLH

| Compound | IC50 [nM] |
| --- | --- |
| O=c1nc(OCC2CCCO2)cc2n1CCc1cc(OCC3CC3)ccc1-2 (stereo not drawn) [compound 11, 9-cyclopropylmethoxy-2-(tetrahydro-furan-2-ylmethoxy)-6,7-dihydro-pyrimido[6,1-a]isoquinolin-4-one] | 100 to 500 |
| O=C(NC1CCOCC1)c1ccc2c(c1)CCn1c-2cc(OCC2COc3ncccc3O2)nc1=O (stereo not drawn) [compound 195, 2-(2,3-dihydro-[1,4]dioxino[2,3-b]pyridin-2-ylmethoxy)-4-oxo-6,7-dihydro-4H-pyrimido[6,1-a]isoquinoline-9-carboxylic acid (tetrahydro-pyran-4-yl)-amide] | 100 to 500 |
| O=c1nc(OCC2CCCO2)cc2n1CCc1cc(OCCOc3cccc(Cl)c3)ccc1-2 (stereo not drawn) [compound 44, 9-[2-(3-chloro-phenoxy)-ethoxy]-2-(tetrahydro-furan-2-ylmethoxy)-6,7-dihydro-pyrimido[6,1-a]isoquinolin-4-one] | 0.01 to 100 |
| O=c1nc(OCC2CCCO2)cc2n1CCc1cc(OCc3noc(-c4ccccc4)n3)ccc1-2 (stereo not drawn) [compound 88, 9-(5-phenyl-[1,2,4]oxadiazol-3-ylmethoxy)-2-(tetrahydro-furan-2-ylmethoxy)-6,7-dihydro-pyrimido[6,1-a]isoquinolin-4-one] | 0.01 to 100 |
| CCNC1(C#Cc2ccc3c(c2)CCn2c-3cc(OCC3COc4ncccc4O3)nc2=O)COC1 (stereo not drawn) [compound 201, 2-(2,3-dihydro-[1,4]dioxino[2,3-b]pyridin-2-ylmethoxy)-9-(3-ethylamino-oxetan-3-ylethynyl)-6,7-dihydro-pyrimido[6,1-a]isoquinolin-4-one] | 100 to 500 |
| O=c1nc(OCC2CCCO2)cc2n1CCc1cc(OCCOc3ccccc3Cl)ccc1-2 (stereo not drawn) [compound 43, 9-[2-(2-chloro-phenoxy)-ethoxy]-2-(tetrahydro-furan-2-ylmethoxy)-6,7-dihydro-pyrimido[6,1-a]isoquinolin-4-one] | 0.01 to 100 |
| O=c1nc(OCC2CCCO2)cc2n1CCc1cc(OCc3cccc(Cl)c3)ccc1-2 (stereo not drawn) [compound 22, 9-(3-chloro-benzyloxy)-2-(tetrahydro-furan-2-ylmethoxy)-6,7-dihydro-pyrimido[6,1-a]isoquinolin-4-one] | 0.01 to 100 |
| CCCn1nnnc1COc1ccc2c(c1)CCn1c-2cc(OCC2CCCO2)nc1=O (stereo not drawn) [compound 64, 9-(1-propyl-1H-tetrazol-5-ylmethoxy)-2-(tetrahydro-furan-2-ylmethoxy)-6,7-dihydro-pyrimido[6,1-a]isoquinolin-4-one] | 100 to 500 |
| COc1ncc(-c2ccc3c(c2)CCn2c-3cc(OCC3COc4ncccc4O3)nc2=O)cn1 (stereo not drawn) [compound 166, 2-(2,3-dihydro-[1,4]dioxino[2,3-b]pyridin-2-ylmethoxy)-9-(2-methoxy-pyrimidin-5-yl)-6,7-dihydro-pyrimido[6,1-a]isoquinolin-4-one] | 0.01 to 100 |
| O=c1nc(OCC2CCCO2)cc2n1CCc1cc(OCc3cccc(-c4ccoc4)n3)ccc1-2 (stereo not drawn) [compound 56, 9-(6-furan-3-yl-pyridin-2-ylmethoxy)-2-(tetrahydro-furan-2-ylmethoxy)-6,7-dihydro-pyrimido[6,1-a]isoquinolin-4-one] | 0.01 to 100 |
| COc1ccc(-c2ccc3c(c2)CCn2c-3cc(OCC3CCCO3)nc2=O)cc1 (stereo not drawn) [compound 101, 9-(4-methoxy-phenyl)-2-(tetrahydro-furan-2-ylmethoxy)-6,7-dihydro-pyrimido[6,1-a]isoquinolin-4-one] | 100 to 500 |
| C=CCOc1ccc2c(c1)CCn1c-2cc(OCC2COc3ncccc3O2)nc1=O (stereo not drawn) [compound 77, 9-allyloxy-2-(2,3-dihydro-[1,4]dioxino[2,3-b]pyridin-2-ylmethoxy)-6,7-dihydro-pyrimido[6,1-a]isoquinolin-4-one] | 100 to 500 |
| CC(C)CC(O)C#Cc1ccc2c(c1)CCn1c-2cc(OCC2COc3ncccc3O2)nc1=O (stereo not drawn) [compound 185, 2-(2,3-dihydro-[1,4]dioxino[2,3-b]pyridin-2-ylmethoxy)-9-(3-hydroxy-5-methyl-hex-1-ynyl)-6,7-dihydro-pyrimido[6,1-a]isoquinolin-4-one] | 0.01 to 100 |

Continued, values first:

| IC50 [nM] | Compound |
| --- | --- |
| 100 to 500 | CN(C)c1ccc(-c2ccc3c(c2)CCn2c-3cc(OCC3CCCO3)nc2=O)cc1 (stereo not drawn) [compound 105, 9-(4-dimethylamino-phenyl)-2-(tetrahydro-furan-2-ylmethoxy)-6,7-dihydro-pyrimido[6,1-a]isoquinolin-4-one] |
| 0.01 to 100 | O=c1nc(OCC2COc3ncccc3O2)cc2n1CCc1cc(C3=CCOCC3)ccc1-2 (stereo not drawn) [compound 161, 2-(2,3-dihydro-[1,4]dioxino[2,3-b]pyridin-2-ylmethoxy)-9-(3,6-dihydro-2H-pyran-4-yl)-6,7-dihydro-pyrimido[6,1-a]isoquinolin-4-one] |
| 100 to 500 | O=c1nc(OCC2COc3ncccc3O2)cc2n1CCc1cc(OCCN3CCOCC3)ccc1-2 (stereo not drawn) [compound 90, 2-(2,3-dihydro-[1,4]dioxino[2,3-b]pyridin-2-ylmethoxy)-9-(2-morpholin-4-yl-ethoxy)-6,7-dihydro-pyrimido[6,1-a]isoquinolin-4-one] |
| 100 to 500 | N#Cc1cccc(COc2ccc3c(c2)CCn2c-3cc(OCC3CCCO3)nc2=O)c1 (stereo not drawn) [compound 19, 3-[4-oxo-2-(tetrahydro-furan-2-ylmethoxy)-6,7-dihydro-4H-pyrimido[6,1-a]isoquinolin-9-yloxymethyl]-benzonitrile] |
| 100 to 500 | N#CCNc1ccc2c(c1)CCn1c-2cc(OCC2COc3ncccc3O2)nc1=O (stereo not drawn) [compound 151, [2-(2,3-dihydro-[1,4]dioxino[2,3-b]pyridin-2-ylmethoxy)-4-oxo-6,7-dihydro-4H-pyrimido[6,1-a]isoquinolin-9-ylamino]-acetonitrile] |
| 0.01 to 100 | O=c1nc(OCC2COc3ncccc3O2)cc2n1CCc1cc(CN3CCOCC3)ccc1-2 (stereo not drawn) [compound 150, 2-(2,3-dihydro-[1,4]dioxino[2,3-b]pyridin-2-ylmethoxy)-9-morpholin-4-ylmethyl-6,7-dihydro-pyrimido[6,1-a]isoquinolin-4-one] |
| 0.01 to 100 | O=c1nc(OCC2CCCO2)cc2n1CCc1cc(OCc3ccccc3)ccc1-2 (stereo not drawn) [compound 7, 9-benzyloxy-2-(tetrahydro-furan-2-ylmethoxy)-6,7-dihydro-pyrimido[6,1-a]isoquinolin-4-one] |
| 100 to 500 | N#Cc1cccc(-c2ccc3c(c2)CCn2c-3cc(OCC3CCCO3)nc2=O)c1 (stereo not drawn) [compound 95, 3-[4-Oxo-2-(tetrahydro-furan-2-ylmethoxy)-6,7-dihydro-4H-pyrimido[6,1-a]isoquinolin-9-yl]-benzonitrile] |
| 500 to 1000 | O=C(O)c1cccc(-c2ccc3c(c2)CCn2c-3cc(OCC3CCCO3)nc2=O)c1 (stereo not drawn) [compound 103, 3-[4-oxo-2-(tetrahydro-furan-2-ylmethoxy)-6,7-dihydro-4H-pyrimido[6,1-a]isoquinolin-9-yl]-benzoic acid] |
| 0.01 to 100 | N#CCOc1ccc2c(c1)CCn1c-2cc(OCC2COc3ccccc3O2)nc1=O (stereo not drawn) [compound 72, [2-(2,3-dihydro-benzo[1,4]dioxin-2-ylmethoxy)-4-oxo-6,7-dihydro-4H-pyrimido[6,1-a]isoquinolin-9-yloxy]-acetonitrile] |
| 100 to 500 | COc1cccc(-c2ccc3c(c2)CCn2c-3cc(OCC3CCCO3)nc2=O)c1 (stereo not drawn) [compound 100, 9-(3-methoxy-phenyl)-2-(tetrahydro-furan-2-ylmethoxy)-6,7-dihydro-pyrimido[6,1-a]isoquinolin-4-one] |
